Assay results from patent US7998965B2, “Glutamate aggrecanase inhibitors” (Wyeth LLC, priority 2005, dated 2011).
Values after ≈ are worked out from the molar mass of the structure shown. Like-named read-outs stand apart in the source and are kept apart here.

What was measured:
[1] = target: T1, purified recombinant human Aggrecanase-1 (rAgg1) (Homo sapiens, UniProt O75173); experiment: In vitro fluorescence screen for Aggrecanase-1 inhibitors; assay type: biochemical; settings: Table 3; for IC50: read-out: Agg1 IC50; for Ki: read-out: Ki Agg1
T1 sequence (O75173 213-837): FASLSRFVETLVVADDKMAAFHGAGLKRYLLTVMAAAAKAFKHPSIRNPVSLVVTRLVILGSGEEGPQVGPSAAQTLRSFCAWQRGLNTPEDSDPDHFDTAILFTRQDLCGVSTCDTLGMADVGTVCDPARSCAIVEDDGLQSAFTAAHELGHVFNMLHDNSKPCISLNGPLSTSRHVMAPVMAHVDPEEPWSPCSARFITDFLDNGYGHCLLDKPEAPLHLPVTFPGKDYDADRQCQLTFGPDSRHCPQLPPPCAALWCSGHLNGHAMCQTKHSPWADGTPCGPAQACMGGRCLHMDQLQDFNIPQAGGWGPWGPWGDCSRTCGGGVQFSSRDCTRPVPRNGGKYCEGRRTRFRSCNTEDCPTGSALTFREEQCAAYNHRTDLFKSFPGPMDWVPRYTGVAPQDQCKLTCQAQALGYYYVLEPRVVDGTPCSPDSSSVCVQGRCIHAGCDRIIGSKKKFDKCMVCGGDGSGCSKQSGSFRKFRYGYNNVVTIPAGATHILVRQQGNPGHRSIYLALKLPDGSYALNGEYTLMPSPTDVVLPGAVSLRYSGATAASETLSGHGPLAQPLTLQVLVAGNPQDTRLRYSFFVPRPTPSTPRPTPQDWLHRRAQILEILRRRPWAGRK

[2] = system: Aggrecanase-mediated aggrecan cleavage in human OA cartilage explants; experiment: Human osteoarthritic cartilage explant efficacy study (BC3 western analysis); assay type: cell-based; settings: for EC50: 144 h, read-out: EC50 (inhibition of aggrecanase generated aggrecan fragments)
Description: Human OA Cartilage Explant Culture: Discarded tissues from consented knee replacement patients were obtained from New England Baptist Hospital (Brookline, Mass.) in sterile phosphate buffered saline (PBS) after about 2-4 hrs post surgery. Cartilage slices were harvested from the knee specimens and washed several times in PBS. These cartilage slices were cut into appropriate pieces (6-8 mm) and rinsed in PBS and then in media and further cultured for additional days as cartilage explants. The medium consisted of Dulbecco's Modified Eagle's medium (DMEM, JRH Biosciences, Lenexa, Kans.), 50 μg/ml ascorbic acid (Wako, Osaka, Japan), 10 mM HEPES, pH 7.0 (Mediatech, Herndon, Va.), 2 mM L-glutamine (Mediatech), 100 U/ml antibiotic-antimycotic solution (Mediatech).
Test compounds: The test compounds are described in Examples 8OO, 8NNNNNNN, and 8WWWWWWW. Stock solutions of the compounds were prepared at 1 mg/ml in DMSO, aliquoted and stored at −20° C. Working solutions of the compounds were made in DMSO and added to the culture for efficacy studies.
Efficacy study: Cartilage explants were cultured for 2-3 days in DMEM medium in a 37° C. and 5% CO2 environment to equilibrate the tissue. Explants were weighed (˜250 mg) and placed in wells of a 24-well culture dish in 1 ml of medium and 3 replicates per treatment group. For the efficacy study, cartilage explants were cultured for 6 days in the presence or absence of various concentrations of the test compound. The media was replaced on day 3 and the experiment was terminated on day 6. Total aggrecan content of conditioned media was measured by a colorimetric assay with DMMB (Farndale, R W et al., Biochim Biophys Acta. 1986, 883, 173-177).
Western analysis: Aggrecan fragments in conditioned medium were analyzed by western analysis using neoepitope antibody, BC-3 designed to recognize the Aggrecanase-generated N-terminal interglobular neoepitope ^374ARGS. Equal cartilage weight equivalent conditioned media from each replicate well per treatment group was pooled and digested with Chondroitinase ABC (Sigma, St Louis, Mo.), Keratinase I (Seikagaku America, Falmouth, Mass.) and Keratinase II (Seikagaku America, Falmouth, Mass.) for 2 h at 37° C. Samples were concentrated by YM-10 centrifugal filter device (Millipore Corp., Bedford, Mass.), lyophilized and reconstituted with equal volume of water. Samples were separated under reducing conditions on 4-12% gradient Tris-glycine gels (Invitrogen, Carlsbad, Calif.). Proteins from the gels were transferred to nitrocellulose membranes. Immunoblots were probed using Mab BC-3 (Abcam, Cambridge, Mass.). Incubation with primary and alkaline-phosphatase-conjugated secondary goat anti-mouse IgG (Promega Corp., Madison, Wis.) was performed overnight at 4° C. and at room temperature for 1 h, respectively. The immunoblots were incubated with NBT/BCIP substrate (Promega Corp., Madison, Wis.) at room temperature to achieve optimum color development. The aggrecan fragments containing the ARGS neoepitope were quantitated by densitometry analysis and the percentage inhibition of aggrecan degradation by test compounds was determined.

MMP-12 = MMP-12 (Homo sapiens, UniProt P39900); experiment: MMP-12 of Table 3; assay type: biochemical; settings: unit inferred
Sequence of MMP-12 (P39900 106-470): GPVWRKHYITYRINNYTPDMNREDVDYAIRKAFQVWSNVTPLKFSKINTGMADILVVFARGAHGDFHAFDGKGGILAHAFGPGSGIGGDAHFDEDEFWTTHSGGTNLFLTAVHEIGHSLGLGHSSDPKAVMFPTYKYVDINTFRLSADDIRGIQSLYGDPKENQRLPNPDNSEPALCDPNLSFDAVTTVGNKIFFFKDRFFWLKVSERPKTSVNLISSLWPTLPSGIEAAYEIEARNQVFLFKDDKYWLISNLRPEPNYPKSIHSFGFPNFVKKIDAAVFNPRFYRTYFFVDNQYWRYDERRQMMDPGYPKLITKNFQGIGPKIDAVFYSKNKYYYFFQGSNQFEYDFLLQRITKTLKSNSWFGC

recombinant human MMP-2 = target: T2, recombinant human MMP-2 (Homo sapiens, UniProt P08253); experiment: In vitro fluorescence assay of MMP-2 activity
T2 sequence (P08253 110-660): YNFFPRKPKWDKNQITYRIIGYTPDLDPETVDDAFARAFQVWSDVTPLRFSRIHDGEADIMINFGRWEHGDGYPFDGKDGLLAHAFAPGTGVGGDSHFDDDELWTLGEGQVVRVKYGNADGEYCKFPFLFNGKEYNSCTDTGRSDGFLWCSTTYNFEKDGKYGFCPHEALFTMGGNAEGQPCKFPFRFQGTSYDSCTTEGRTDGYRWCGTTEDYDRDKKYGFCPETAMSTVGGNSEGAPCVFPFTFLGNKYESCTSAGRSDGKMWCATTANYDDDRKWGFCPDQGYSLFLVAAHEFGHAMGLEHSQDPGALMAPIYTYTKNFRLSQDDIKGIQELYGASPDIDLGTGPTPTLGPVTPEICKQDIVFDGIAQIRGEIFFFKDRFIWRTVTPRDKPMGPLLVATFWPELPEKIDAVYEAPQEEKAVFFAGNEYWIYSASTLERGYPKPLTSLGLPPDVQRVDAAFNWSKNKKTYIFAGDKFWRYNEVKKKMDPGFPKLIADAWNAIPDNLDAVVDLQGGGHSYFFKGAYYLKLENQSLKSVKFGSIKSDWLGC

MMP-8 = MMP-8 (Homo sapiens, UniProt P22894); experiment: MMP-8 of Table 3; assay type: biochemical; settings: unit inferred
Sequence of MMP-8 (P22894 101-467, species assumed): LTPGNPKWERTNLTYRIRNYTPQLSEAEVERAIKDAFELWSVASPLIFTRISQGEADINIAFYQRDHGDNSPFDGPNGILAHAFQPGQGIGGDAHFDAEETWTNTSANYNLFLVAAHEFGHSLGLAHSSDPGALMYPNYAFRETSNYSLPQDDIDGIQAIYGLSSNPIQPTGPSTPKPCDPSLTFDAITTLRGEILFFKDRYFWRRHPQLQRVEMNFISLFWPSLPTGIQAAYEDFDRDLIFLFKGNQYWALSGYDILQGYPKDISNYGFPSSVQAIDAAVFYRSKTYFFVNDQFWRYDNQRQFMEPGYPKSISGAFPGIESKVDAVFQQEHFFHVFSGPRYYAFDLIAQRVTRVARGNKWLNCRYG

[3] = target: T3, purified recombinant human Aggrecanase-2 (Ag2t-Phe628-Strep) (Homo sapiens, UniProt Q9UNA0); experiment: In vitro fluorescence screen for Aggrecanase-2 inhibitors; assay type: biochemical; settings: Table 3; for IC50: read-out: Agg 2 IC50; for Ki: read-out: Ki Agg2
T3 construct: the form used is denoted as Ag2t-Phe628-Strep (MW=41,737)
T3 sequence (Q9UNA0 262-628): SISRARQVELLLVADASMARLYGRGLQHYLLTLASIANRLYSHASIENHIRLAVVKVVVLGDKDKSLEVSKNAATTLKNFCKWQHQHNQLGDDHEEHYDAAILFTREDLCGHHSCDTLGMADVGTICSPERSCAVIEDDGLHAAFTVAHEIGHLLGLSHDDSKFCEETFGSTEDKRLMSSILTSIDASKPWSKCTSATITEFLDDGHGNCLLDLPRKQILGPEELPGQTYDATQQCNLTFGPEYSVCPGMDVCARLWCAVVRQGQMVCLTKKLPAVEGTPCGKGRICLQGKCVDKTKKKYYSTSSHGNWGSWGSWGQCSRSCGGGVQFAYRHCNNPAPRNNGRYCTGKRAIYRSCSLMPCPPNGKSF

[4] = Homo sapiens, read-out: % inhibition (BC3 analysis)

SMILES | IC50 [1] [nM] | Ki [1] [nM] | IC50 (MMP-12) [nM] | IC50 (recombinant human MMP-2) [nM] | IC50 (MMP-8) [nM] | IC50 [3] [nM] | Ki [3] [nM] | other results
CC(C)(Cc1ccc(F)cc1)NC(=O)[C@H](CCC(=O)O)NC(=O)c1ccc(-c2cccs2)cc1 [Example 8NNNNNNN, N-[2-(4-fluorophenyl)-1,1-dimethylethyl]-N^2-[4-(2-thienyl)benzoyl]-L-α-glutamine] | < 30 | < 3 | 680 | 2150 | 1210 | < 30 | 37 | EC50 ([2]; human OA cartilage explants, 6 days, BC3 analysis): < 0.04 µg/mL; inhibition at 0.04 µg/mL ([2]; Homo sapiens, 0.04 ug/ml, average of 4 donors, read-out: % inhibition (BC3 analysis)): 70.2%; inhibition at 0.08 µg/mL ([2]; Homo sapiens, 0.08 ug/ml, average of 4 donors, read-out: % inhibition (BC3 analysis)): 84.5%; inhibition at 0.15 µg/mL ([2]; Homo sapiens, 0.15 ug/ml, average of 4 donors, read-out: % inhibition (BC3 analysis)): 66.7%; inhibition at 0.3 µg/mL ([2]; Homo sapiens, 0.3 ug/ml, average of 4 donors, read-out: % inhibition (BC3 analysis)): 73.1%; inhibition at 0.6 µg/mL ([2]; Homo sapiens, 0.6 ug/ml, average of 4 donors, read-out: % inhibition (BC3 analysis)): 98.9%; inhibition at 1.25 µg/mL ([2]; Homo sapiens, 1.25 ug/ml, average of 4 donors, read-out: % inhibition (BC3 analysis)): 99.4%; inhibition at 2.5 µg/mL ([2]; Homo sapiens, 2.5 ug/ml, average of 4 donors): 98.7%; inhibition at 5 µg/mL ([2]; Homo sapiens, 5 ug/ml, average of 4 donors): 100%; inhibition at 10 µg/mL ([2]; Homo sapiens, 10 ug/ml, average of 4 donors): 101%
CC(C)(Cc1ccc(F)cc1)NC(=O)[C@H](CCC(=O)O)NC(=O)c1ccc(-c2ccc(Cl)s2)cc1 [Example 8WWWWWWW, N^2-[4-(5-chloro-2-thienyl)benzoyl]-N-[2-(4-fluorophenyl)-1,1-dimethylethyl]-L-α-glutamine] | < 30 | < 3 | 630 | 1080 | 370 | 50 | 42 | EC50 ([2]; Homo sapiens): 0.04 to 0.16 µg/mL (≈ 0.0774 to 0.309 µM); inhibition at 0.01 µg/mL [2, 4]: 2.85%; inhibition at 0.02 µg/mL [2, 4]: 46.4%; inhibition at 0.04 µg/mL [2, 4]: 23.5%; inhibition at 0.08 µg/mL [2, 4]: 76.9%; inhibition at 0.15 µg/mL [2, 4]: 88.5%; inhibition at 0.3 µg/mL [2, 4]: 95%; inhibition at 0.6 µg/mL [2, 4]: 98%; inhibition at 1.25 µg/mL [2, 4]: 100%
CC(C)(Cc1ccccc1)NC(=O)[C@H](CCC(=O)O)NC(=O)c1ccc(-c2cccc(F)c2)cc1 [N-(1,1-dimethyl-2-phenylethyl)-N^2-[(3′-fluorobiphenyl-4-yl)carbonyl]-L-α-glutamine] | < 30 | 23.2 | 1070 | 6400 | 2500 | 80 | 180 | 
CC(C)(Cc1ccccc1)NC(=O)[C@H](CCC(=O)O)NC(=O)c1ccc(-c2ccc(F)cc2)cc1 [N-(1,1-dimethyl-2-phenylethyl)-N^2-[(4′-fluorobiphenyl-4-yl)carbonyl]-L-α-glutamine] | < 30 | 27.2 | 628 | 4000 | 763 | 90 | 218 | 
CC(C)(Cc1ccccc1)NC(=O)[C@H](CCC(=O)O)NC(=O)c1ccc(-c2ccc(F)cc2)s1 [N-(1,1-dimethyl-2-phenylethyl)-N^2-{[5-(4-fluorophenyl)-2-thienyl]carbonyl}-L-α-glutamine] | < 30 | 11.5 | 2890 | 7240 | 2550 | 30 to 300 | 126 | 
CC(C)(Cc1ccc(Cl)cc1)NC(=O)[C@H](CCC(=O)O)NC(=O)c1ccc(-c2cccc(Cl)c2)cc1 [N^2-[(3′-chlorobiphenyl-4-yl)carbonyl]-N-[2-(4-chlorophenyl)-1,1-dimethylethyl]-L-α-glutamine] | < 30 | 39.6 | 3710 | 25500 | 13200 | 250 | 349 | 
CC(C)(Cc1ccccc1)NC(=O)[C@H](CCC(=O)O)NC(=O)c1ccc(-c2ccc(Cl)cc2)s1 [N^2-{[5-(4-chlorophenyl)-2-thienyl]carbonyl}-N-(1,1-dimethyl-2-phenylethyl)-L-α-glutamine] | < 30 | 28.9 | 2240 | 6970 | 2230 | 100 to 300 | 204 | 
CC(C)(Cc1ccc(F)cc1)NC(=O)[C@H](CCC(=O)O)NC(=O)c1ccc(-c2ccc(Cl)cc2)s1 [N^2-{[5-(4-chlorophenyl)-2-thienyl]carbonyl}-N-[2-(4-fluorophenyl)-1,1-dimethylethyl]-L-α-glutamine] | < 30 | 11.7 | > 10000 | 8000 | 3400 | > 100 | 405 | 
CC(C)(Cc1ccc(F)cc1)NC(=O)[C@H](CCC(=O)O)NC(=O)c1ccc(-c2ccc(Cl)s2)nc1 [N^2-{[6-(5-chloro-2-thienyl)pyridin-3-yl]carbonyl}-N-[2-(4-fluorophenyl)-1,1-dimethylethyl]-L-α-glutamine] | < 30 | 42 | > 10000 | 1300 | > 5000 | > 300 | 723 | 
